We go through nine compounds from patent US20240181022A1, “AMURINS LYSINS, AND LYSIN-ANTIMICROBIAL PEPTIDE (AMP) CONSTRUCTS ACTIVE AGAINST GRAM-NEGATIVE BACTERIA” (priority 2021, published 2024).

Converted amounts (≈) assume the structure as drawn. Read-outs that look alike come from different tables or passages of the source. Where a SMILES comes first, the peptide text is derived from it. Where no end group is shown, it is not given here. [ ]: non-standard residue; d: D form.

One assay has as its system M. kansasii. Kind of assay: MIC against M. kansasii. In kind it is cell-based, Mycobacterium kansasii. Particulars: M. kansasi (ATCC 12478); CAAT media.
A further assay concerns Mycobacterium species. Type of assay: cell-based.
The next assay deals with M. smegmatis. Kind of assay: MIC against M. smegmatis. Particulars: M. smegmatis (MC 155); CAAT media. In kind it is cell-based, Mycobacterium smegmatis.
Another assay relates to M. tuberculosis. Type of assay: cell-based, Mycobacterium tuberculosis.
The test system of a further assay is M. fortuitum. Kind of assay: MIC against M. fortuitum. Type of assay: cell-based, Mycobacterium fortuitum. The following applies: M. fortuitum (ATCC 6841); CAAT media.
For the next assay, the system named is M. scrofulaceum. Kind of assay: MIC against M. scrofulaceum. Type of assay: cell-based, Mycobacterium scrofulaceum. The following applies: M. scrofulaceum (ATCC 19981); CAAT media.
A further assay has as its system M. abscessus. Kind of assay: MIC against MDR M. abscessus isolates. In kind it is cell-based, Mycobacterium abscessus. The following applies: 7 days; for MIC: AST media (CAAT); for activity (MIC) against M. abscessus: 5 clinical MDR strains and 1 ATCC strain, CAAT.
The subject of a further assay is M. avium. Kind of assay: MIC against M. avium. In kind it is cell-based, Mycobacterium avium. Particulars: M. avium (ATCC 700898); CAAT media.
The next assay deals with M. intracellulare. Kind of assay: MIC against M. intracellulare. Type of assay: cell-based, Mycobacterium intracellulare. Particulars: M. intracellulare (ATCC 13950); CAAT media.
The test system of a further assay is A. baumannii. Kind of assay: Checkerboard synergy assay (FICI) against A. baumannii. In kind it is cell-based, Acinetobacter baumannii. Particulars: A. baumannii ATCC BAA-747. Here is the method: (§1) Any known method to assess MIC may be used.
(§2) Checkerboards are constructed by first preparing columns of e.g., a 96-well polypropylene microtiter plate, wherein each well has the same amount of antibiotic diluted 2-fold along the horizontal axis. […] Bacteria are added to the drug combinations at concentrations of 1×10^5 […] in CAA, for example, with or without human serum or pulmonary surfactant. […] Summation fractional inhibitory concentrations (ΣFICs) are calculated for each drug and the minimum ΣFIC value (ΣFICmin) is used to determine the effect of the Chp peptide/antibiotic combination.
(§3) GN370 was further tested in combination with up to seven additional antibiotics (in addition to meropenem) against a variety of bacterial strains, including P. aeruginosa, A. baumannii, E. coli, E. cloacae, and K. pneumoniae. GN370 and the subject antibiotics were tested in a checkerboard assay format, and FICI values were determined, wherein ≤0.5 indicates synergy, >0.5-≤1 indicates additive; and >1 indicates indifferent.

A further assay deals with K. pneumoniae. Kind of assay: Checkerboard synergy assay (FICI) against K. pneumoniae. In kind it is cell-based, Klebsiella pneumoniae. Particulars: K. pneumoniae HM-44. The method, then:
as §1, §2, §3

Where [1] appears, read: M. tuberculosis (ATCC 35817), (ADC, T) media.
[2] abbreviates: M. tuberculosis strain TN8109_LB (MDR), 7H9 broth, 20 days.
[3] abbreviates: M. tuberculosis strain TN8562_M33 (susc), 7H9 broth, 20 days.
[4] abbreviates: M. tuberculosis strain TN10525_LL (MDR), 7H9 broth, 20 days.
Where [5] appears, read: M. tuberculosis strain TN10571_KY (MDR), 7H9 broth, 20 days.
Setting [6] is: M. tuberculosis strain TN12657_KQ15 (IS), 7H9 broth, 20 days.
Where [7] appears, read: M. tuberculosis strain TN13923_HD17 (susc), 7H9 broth, 20 days.
Setting [8] is: M. tuberculosis strain TN18349_W738 (susc), 7H9 broth, 20 days.
The mark [9] stands for this setting: M. tuberculosis strain TN34503_001 (susc), 7H9 broth, 20 days.
Where [10] appears, read: M. abscessus strain BK51403 (ATCC 19977).
The mark [11] stands for this setting: 30 amurin peptides, seven species, CAAT media.

`CC[C@H](C)[C@H](NC(=O)CNC(=O)CNC(=O)[C@H](CCCNC(=N)N)NC(=O)[C@H](CCSC)NC(=O)[C@@H](NC(=O)[C@H](CCCNC(=N)N)NC(=O)[C@H](CCCNC(=N)N)NC(=O)[C@H](CC(C)C)NC(=O)[C@H](CCCNC(=N)N)NC(=O)[C@H](CC(N)=O)NC(=O)[C@H](CCCNC(=N)N)NC(=O)[C@@H]1CCCN1C(=O)[C@H](Cc1c[nH]cn1)NC(=O)[C@H](CCSC)NC(=O)[C@H](CCCNC(=N)N)NC(=O)[C@H](CC(C)C)NC(=O)[C@H](C)NC(=O)[C@@H](NC(=O)[C@H](CCCNC(=N)N)NC(=O)[C@H](CO)NC(=O)[C@H](Cc1ccccc1)NC(=O)[C@H](CC(C)C)NC(=O)[C@H](CCCNC(=N)N)NC(=O)[C@H](CCCNC(=N)N)NC(=O)[C@H](CO)NC(=O)[C@H](CCCNC(=N)N)NC(=O)[C@H](CCCNC(=N)N)NC(=O)[C@H](CCCNC(=N)N)NC(=O)[C@@H]1CCCN1C(=O)[C@H](CC(C)C)NC(=O)[C@H](CCCNC(=N)N)NC(=O)[C@H](Cc1ccc(O)cc1)NC(=O)[C@H](CCCNC(=N)N)NC(=O)[C@H](CCCNC(=N)N)NC(=O)[C@H](CCCNC(=N)N)NC(=O)[C@H](C)NC(=O)[C@@H](N)CCSC)[C@@H](C)O)[C@@H](C)CC)C(=O)N[C@@H](CCCNC(=N)N)C(=O)N[C@@H](Cc1ccccc1)C(=O)O` [AM18] (H-MARRRYRLPRRRSRRLFSRTALRMHPRNRLRRIMRGGIRF-OH): the MIC amounted to 4 µg/mL (≈ 0.772 µM) in the assay on M. kansasii; 0.25 µg/mL (≈ 0.0483 µM) in the assay with M. smegmatis; 4 µg/mL (≈ 0.772 µM) in the assay with M. tuberculosis (setting [1]); 1 µg/mL (≈ 0.193 µM) in the assay with M. tuberculosis (setting [2]); 2 µg/mL (≈ 0.386 µM) in the assay with M. tuberculosis (setting [3]); 1 µg/mL (≈ 0.193 µM) in the assay with M. tuberculosis (setting [4]). The MIC was found to be 2 µg/mL (≈ 0.386 µM) against M. tuberculosis (setting [5]); 1 µg/mL (≈ 0.193 µM) with M. tuberculosis (setting [6]); 1 µg/mL (≈ 0.193 µM) against M. tuberculosis (setting [7]); 2 µg/mL (≈ 0.386 µM) against M. tuberculosis (setting [8]); 0.5 µg/mL (≈ 0.0965 µM) against M. tuberculosis (setting [9]); 2 µg/mL (≈ 0.386 µM) with M. fortuitum. Moreover, the MIC with M. scrofulaceum came to 4 µg/mL (≈ 0.772 µM); with M. abscessus (M. abscessus strain BK51402), 2 µg/mL (≈ 0.386 µM); with M. abscessus (setting [10]), 1 µg/mL (≈ 0.193 µM); in the assay with M. abscessus (M. abscessus strain BK51408), 4 µg/mL (≈ 0.772 µM); against M. abscessus (M. abscessus strain BK55096) it was 4 µg/mL (≈ 0.772 µM); against M. abscessus (M. abscessus strain BK55691), 2 µg/mL (≈ 0.386 µM). Also, the values for the MIC in the assay on M. abscessus (M. abscessus strain BK58156), in the assay with M. avium and in the assay with M. intracellulare were 16 µg/mL (≈ 3.09 µM), 2 Tg/mL and 1 µg/mL (≈ 0.193 µM), respectively. For the same compound, in the assay on Mycobacterium species, the “activity (MIC) against Mycobacterium species” value is “highest activity”.

On to `Cc1nnc(SCC2=C(C(=O)O)N3C(=O)[C@@H](NC(=O)Cn4cnnn4)[C@H]3SC2)s1` [Cefazolin], for which the “FICI of the antibiotic with GN370” value in the assay on A. baumannii is listed as 0.5; in the assay on K. pneumoniae it was 0.375.

For the compound “AM9: Modified variant of Unp2, SEQ ID NO: 97 (M[dR][dR][dR][dR]LS[dR][dR]TS[dR][dR]FF[dR][dK]GL[dK]V[dR][dR][dR]NL[dR]A[dR]PM[dR]GGF[dR]I)”, the MIC came out at 2 µg/mL against M. kansasii; 1 µg/mL with M. smegmatis; 4 µg/mL in the assay on M. tuberculosis (setting [1]); 16 µg/mL in the assay on M. tuberculosis (setting [2]); 16 µg/mL against M. tuberculosis (setting [3]); 64 µg/mL against M. tuberculosis (setting [4]). The MIC in the assay on M. tuberculosis (setting [5]) stood at 8 µg/mL; in the assay on M. tuberculosis (setting [6]), 16 µg/mL; against M. tuberculosis (setting [7]), 16 µg/mL; against M. tuberculosis (setting [8]) it was 8 µg/mL; with M. tuberculosis (setting [9]) it was 16 µg/mL; in the assay with M. fortuitum, 4 µg/mL. Also, the MIC against M. scrofulaceum was 4 µg/mL; with M. abscessus (M. abscessus strain BK51402), 1 µg/mL; against M. abscessus (setting [10]) it was 4 µg/mL; in the assay with M. abscessus (M. abscessus strain BK51408), 4 µg/mL; in the assay with M. abscessus (M. abscessus strain BK55096), 2 µg/mL; against M. abscessus (M. abscessus strain BK55691), 2 µg/mL. Also, the results for the MIC against M. abscessus (M. abscessus strain BK58156), in the assay on M. avium and against M. intracellulare were 2 µg/mL, 1 Tg/mL and 2 µg/mL, respectively. In addition, in the assay with Mycobacterium species (setting [11]), the “activity (MIC) against Mycobacterium species” value is on record as “highest activity”. In addition, the “activity (MIC) against M. abscessus” value in the assay on M. abscessus is “good activity”.

In the case of “AM16: Modified variant of Chp4, SEQ ID NO: 91 (MA[dR][dR]Y[dR]LS[dR][dR][dR]S[dR][dR]LFS[dR]TAL[dR]MH[dR][dR]N[dR]L[dR][dR]IM[dR]GGI[dR]F)”, the MIC against M. kansasii was 1 µg/mL; against M. smegmatis, 0.25 µg/mL; with M. tuberculosis (setting [1]) it was 8 µg/mL; against M. tuberculosis (setting [2]) it was 8 µg/mL; with M. tuberculosis (setting [3]), 8 µg/mL; against M. tuberculosis (setting [4]), 16 µg/mL. For the same compound, the MIC was 8 µg/mL in the assay with M. tuberculosis (setting [5]); 8 µg/mL in the assay with M. tuberculosis (setting [6]); 8 µg/mL against M. tuberculosis (setting [7]); 4 µg/mL against M. tuberculosis (setting [8]); 16 µg/mL against M. tuberculosis (setting [9]); 2 µg/mL against M. fortuitum. Also, the MIC with M. scrofulaceum turned out to be 1 µg/mL; against M. abscessus (M. abscessus strain BK51402) it was 1 µg/mL; against M. abscessus (setting [10]), 2 µg/mL; in the assay with M. abscessus (M. abscessus strain BK51408), 4 µg/mL; against M. abscessus (M. abscessus strain BK55096), 1 µg/mL; in the assay with M. abscessus (M. abscessus strain BK55691) it was 1 µg/mL. For the same compound, the values for the MIC in the assay with M. abscessus (M. abscessus strain BK58156), with M. avium and against M. intracellulare were 2 µg/mL, 1 Tg/mL and 1 µg/mL, respectively. Besides, in the assay on Mycobacterium species (setting [11]), the “activity (MIC) against Mycobacterium species” value is “highest activity”. Besides, in the assay on M. abscessus, the “activity (MIC) against M. abscessus” value is on record as “good activity”.

As to “Spi2: SEQ ID: 26, Spiroplasma virus SpV4 Orf8 (MRRKVKNTKRHQWRLTHSARSIKRANIMPSNPRGGRRF; Spiroplasma virus SpV4)”, the MIC against M. kansasii is 1 µg/mL; against M. smegmatis, 4 µg/mL; against M. tuberculosis (setting [1]) it was 16 µg/mL; against M. fortuitum, 4 µg/mL; in the assay on M. scrofulaceum, 8 µg/mL; in the assay on M. avium, above 64 Tg/mL. Moreover, in the assay with M. intracellulare, the MIC is above 64 µg/mL.

As to “Unp1: SEQ ID NO: 15, unnamed protein product (uncultured bacterium) (MKMRKRTDKRVFTRTAAKSKKVNIAPKIFRGGIRL)”, the MIC in the assay with M. kansasii was found to be 8 µg/mL; against M. smegmatis it was 2 µg/mL; against M. tuberculosis (setting [1]) it was 4 µg/mL; against M. fortuitum, 8 µg/mL; with M. scrofulaceum, 8 µg/mL; in the assay with M. avium it was 1 Tg/mL. The same compound yielded an MIC in the assay with M. intracellulare of 32 µg/mL.

As to “Unp2: SEQ ID NO: 20, unnamed protein product (MRRRRLSRRTSRRFFRKGLKVRRRNLRARPMRGGFRI)”, the MIC came out at 2 µg/mL with M. kansasii; 4 µg/mL against M. smegmatis; 8 µg/mL with M. tuberculosis (setting [1]); 2 µg/mL with M. fortuitum; 4 µg/mL with M. scrofulaceum; 0.5 Tg/mL against M. avium. Moreover, in the assay with M. intracellulare, the MIC stood at 1 µg/mL.

Take “Unp3-M1: Modified variant of Unp3, SEQ ID NO: 98 (MA[dR][dR][dK][dK]M[dK]G[dK][dR]D[dK][dR]VF[dK]QTAN[dK]T[dK]AINISP[dK]NM[dR]GGT[dR]L)”: the MIC was found to be 16 µg/mL against M. kansasii; 8 µg/mL in the assay with M. smegmatis; 4 µg/mL in the assay with M. tuberculosis (setting [1]); 4 µg/mL in the assay on M. fortuitum; 8 µg/mL with M. scrofulaceum; 8 Tg/mL with M. avium. Also, the MIC in the assay on M. intracellulare is above 64 µg/mL.

As for “Unp4: SEQ ID NO: 94, Marine gokushovirus (MIVRRHKMSRRRSRKLFSKTASRTRSKNLRSRPMRGGYRI; listed as Marine gokushovirus)”, the MIC was determined as 4 µg/mL against M. kansasii; 16 µg/mL against M. smegmatis; 16 µg/mL with M. tuberculosis (setting [1]); 4 µg/mL with M. fortuitum; 4 µg/mL against M. scrofulaceum; 1 Tg/mL in the assay on M. avium. In the assay on M. intracellulare, this compound registered an MIC of 4 µg/mL.
